Laboratory results as given in ChEMBL document CHEMBL1154659, “Discovery and optimization of chromenotriazolopyrimidines as potent inhibitors of the mouse double minute 2-tumor protein 53 protein-protein interaction” (J Med Chem, 2009).
Activity calls are given as the source filed them. The rule behind the calls is not given here.

Tests used:
[1] = tested on: HCT-116; assay: Inhibition of human p53 deficient HCT116 cell proliferation after 16 hrs by BrdU assay; type: functional, cell-based
[2] = tested on: HCT-116; assay: Induction of p21 mRNA in human HCT116 cells by RT-PCR; type: functional, cell-based
[3] = tested on: HCT-116; assay: Inhibition of human p21 deficient HCT116 cell proliferation after 16 hrs by BrdU assay; type: functional, cell-based
[4] = tested on: SJSA-1; assay: Induction of apoptosis in human SJSA1 cells assessed as caspase 3/7 activity after 48 hrs; type: functional, cell-based
[5] = tested on: HCT-116; assay: Inhibition of human HCT116 cell proliferation after 16 hrs by BrdU assay; type: functional, cell-based
[6] = target: Tumour suppressor p53/oncoprotein Mdm2 (Homo sapiens, UniProt Q00987); assay: Inhibition of human MDM2/P53 interaction by HTRF assay; type: protein assay
Sequence of Tumour suppressor p53/oncoprotein Mdm2 (P04637 whole entry): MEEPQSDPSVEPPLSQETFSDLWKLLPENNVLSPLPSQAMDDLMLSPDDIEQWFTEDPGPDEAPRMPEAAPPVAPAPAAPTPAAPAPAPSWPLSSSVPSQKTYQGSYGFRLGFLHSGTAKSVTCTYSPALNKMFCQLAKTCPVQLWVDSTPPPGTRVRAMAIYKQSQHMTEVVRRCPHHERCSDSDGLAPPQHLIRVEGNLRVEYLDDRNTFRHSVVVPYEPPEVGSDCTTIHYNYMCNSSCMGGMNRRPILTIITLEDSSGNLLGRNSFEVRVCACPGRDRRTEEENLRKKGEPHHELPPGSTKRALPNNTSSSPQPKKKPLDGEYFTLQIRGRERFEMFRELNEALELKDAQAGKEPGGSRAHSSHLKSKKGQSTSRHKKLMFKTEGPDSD
Sequence of Tumour suppressor p53/oncoprotein Mdm2 (Q00987 whole entry): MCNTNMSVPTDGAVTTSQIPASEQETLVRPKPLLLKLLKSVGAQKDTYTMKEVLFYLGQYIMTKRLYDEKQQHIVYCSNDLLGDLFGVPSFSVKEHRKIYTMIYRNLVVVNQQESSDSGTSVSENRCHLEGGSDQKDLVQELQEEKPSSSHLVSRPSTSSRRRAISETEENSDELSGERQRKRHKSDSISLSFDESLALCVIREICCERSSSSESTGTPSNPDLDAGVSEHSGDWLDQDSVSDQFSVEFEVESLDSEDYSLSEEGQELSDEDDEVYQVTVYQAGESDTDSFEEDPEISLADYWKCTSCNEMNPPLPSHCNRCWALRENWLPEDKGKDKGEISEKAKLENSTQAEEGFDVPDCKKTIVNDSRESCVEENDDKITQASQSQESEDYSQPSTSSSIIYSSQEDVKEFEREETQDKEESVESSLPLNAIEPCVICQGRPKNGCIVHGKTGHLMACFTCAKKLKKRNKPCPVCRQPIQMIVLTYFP

| IC50 [6] [µM] | SMILES | also measured |
| --- | --- | --- |
| – | COc1ccc(C2=N[C@@H](c3ccc(Cl)cc3)[C@@H](c3ccc(Cl)cc3)N2C(=O)N2CCNC(=O)C2)c(OC(C)C)c1 | Activity [1]: inactive; Activity [2]: Dose-dependent effect; Activity [3]: inactive; Activity [4]: Dose-dependent effect; Activity [5]: Active |
| 3.94 | COc1c(C)ccc2c1C1=C(C(c3ccc(Br)cc3)O2)C(c2ccc(Br)cc2)n2ncnc2N1C (racemic) | – |
| 1.72 | CN1C2=C(C(c3ccc(Br)cc3)Oc3cccc(F)c32)C(c2ccc(Br)cc2)n2ncnc21 (racemic) | – |
| 1.4 | CN1C2=C(C(c3ccc(Br)cc3)Oc3ccc(Cl)cc32)C(c2ccc(Br)cc2)n2ncnc21 (racemic) | – |
| 1.88 | CN1C2=C(C(c3ccc(Br)cc3)Oc3ccccc32)C(c2ccc(F)cc2)n2ncnc21 (racemic) | – |
| 3.06 | CN1C2=C(C(c3ccc(Br)cc3)Oc3ccc(C#N)cc32)C(c2ccc(Br)cc2)n2ncnc21 (racemic) | – |
| 2.08 | CN1C2=C(C(c3ccc(C#N)cc3)Oc3ccccc32)C(c2ccc(Br)cc2)n2ncnc21 (racemic) | – |
| 1.73 | CN1C2=C(C(c3ccc(Br)cc3)Oc3ccc(F)cc32)C(c2ccc(Br)cc2)n2ncnc21 (racemic) | – |
| 0.99 | CN1C2=C(C(c3ccc(Br)cc3)Oc3cc(F)ccc32)C(c2ccc(Br)cc2)n2ncnc21 (racemic) | – |
| 3.5 | CN1C2=C(C(c3ccc(Br)cc3)Oc3c(Cl)cccc32)C(c2ccc(Br)cc2)n2ncnc21 (racemic) | – |
| 6.57 | CN1C2=C(C(c3ccc(F)cc3)Oc3ccccc32)C(c2ccc(Br)cc2)n2ncnc21 (racemic) | – |
| 0.89 | CN1C2=C(C(c3ccc(Cl)cc3)Oc3ccccc32)C(c2ccc(Br)cc2)n2ncnc21 (racemic) | – |
| 3.2 | CCc1ccc2c(c1)C1=C(C(c3ccc(Br)cc3)O2)C(c2ccc(Br)cc2)n2ncnc2N1C (racemic) | – |
| 5.84 | CN1C2=C(C(c3ccc(Br)cc3)Oc3ccccc32)C(c2ccc(C#N)cc2)n2ncnc21 (racemic) | – |
| 4.74 | Cc1ccc(C2C3=C(c4ccccc4OC3c3ccc(Br)cc3)N(C)c3ncnn32)cc1 (racemic) | – |
| > 100 | CN1C2=C(C(c3ccc(Br)cc3)Oc3c(Cl)cc(Cl)cc32)C(c2ccc(Br)cc2)n2ncnc21 (racemic) | – |
| 9.07 | CC#Cc1ccc(C2Oc3ccccc3C3=C2C(c2ccc(Br)cc2)n2ncnc2N3C)cc1 (racemic) | – |
| 0.44 | Cc1ccc2c(c1)C1=C(C(c3ccc(Br)cc3)O2)C(c2ccc(Br)cc2)n2ncnc2N1C (racemic) | – |
| 0.91 | CCOc1cccc2c1C1=C(C(c3ccc(Br)cc3)O2)C(c2ccc(Br)cc2)n2ncnc2N1C (racemic) | – |
| 14.8 | CN1C2=C(C(c3ccc(F)cc3)Oc3ccccc32)C(c2ccc(F)cc2)n2ncnc21 (racemic) | – |
| 4.63 | Cc1ccc(C2Oc3ccccc3C3=C2C(c2ccc(Br)cc2)n2ncnc2N3C)cc1 (racemic) | – |
| 1.21 | CN1C2=C(C(c3ccc(Cl)cc3)Oc3ccccc32)C(c2ccc(Cl)cc2)n2ncnc21 (racemic) | – |
| 15.1 | CN1C2=C(C(c3ccc(Br)cc3)Oc3cc(Cl)ccc32)C(c2ccc(Br)cc2)n2ncnc21 (racemic) | – |
| 2.47 | C#Cc1ccc(C2Oc3ccccc3C3=C2C(c2ccc(Br)cc2)n2ncnc2N3C)cc1 (racemic) | – |
| 0.48 | Cc1cc2c(cc1F)OC(c1ccc(Br)cc1)C1=C2N(C)c2ncnn2C1c1ccc(Br)cc1 (racemic) | – |
| > 100 | CCc1ccc(C2Oc3ccccc3C3=C2C(c2ccc(Br)cc2)n2ncnc2N3C)cc1 (racemic) | – |
| – | Cc1ccc2c(c1)C1=C(C(c3ccc(Br)cc3)O2)C(c2ccc(Br)cc2)n2ncnc2N1C (single isomer, unassigned) | Activity [1]: inactive; Activity [2]: Dose-dependent effect; Activity [3]: inactive; Activity [4]: Dose-dependent effect; Activity [5]: Active |
